In patent US20260378560A1, “APPROACHES TO DESIGNING AND PERFORMING COMPRESSED BIOLOGICAL EXPERIMENTS AND SYSTEMS FOR IMPLEMENTING THE SAME” (EXVIVO LABS INC., priority 2023, published 2026):
Where two headings read alike, the source gives them in different places.

How the values were obtained:
MOLT-4 [1] = experiment: Cell viability (CellTiter Glo), library of cancer drugs, individual or sample compression with randomized (alphabetical) pools, MOLT-4; type: cell-based
Procedure: (§1) Total cell viability was measured for each sample using an ATP-based luminescence assay (i.e., CellTiter Glo). Each cancer drug was then screened at multiple concentrations ranging from one nM to ten μM in order to generate a dose-response curve and calculate a DRS for each cancer cell line.
(§2) Each cancer drug was cultured with target cells individually. At the end of the screen, samples were either analyzed individually or compressed into pools for analysis. The library was compressed alphabetically into ten cohorts, each of which contained seven cancer drugs present in three out of the seven pools, as shown in Table VII. Said another way, the screening platform 210 generated a “7 pick 3” compressed library by assigning the cancer drugs among different pools. […] The library was also compressed into ten cohorts with pools designed based on information known about each cancer drug, as shown in Table VIII. After cell viability measurement and DRS calculation, the DRS of each cancer drug in the samples generated based on the pools were deconvoluted and compared to the DRS for each cancer drug measured individually.
(§3) In SUM-based deconvolution, an assumption of additivity is used to quantify the individual effects of each perturbation on each target. Additivity implies that each perturbation effect on each target is positively contributing to the overall effect measured for that pool. This is an accurate assumption for certain experiments, such as when targets or samples are compressed. When targets are pooled—or when samples containing different targets are pooled—the effect of each perturbation on each individual target is diluted. In other words, each perturbation has an isolated effect on a target in culture, and the sum total of the isolated effects are measured when pooled. Therefore, SUM-based deconvolution breaks down the sum total measured for a pool and assigns estimated fractional effects to each compressed perturbation or target in the pool. The screening platform 210 used SUM-based deconvolution for all target and sample compression experiments described above.

REH [2] = experiment: Cell viability (CellTiter Glo), library of cancer drugs, individual or sample compression with randomized (alphabetical) pools, REH; type: cell-based
Procedure: as §1, §2, §3

MOLT-4 [3] = experiment: Cell viability (CellTiter Glo), compressed perturbation pools with informed pool design, MAX-based deconvolution, MOLT-4;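 also: higher DRS means a larger drug effect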
Procedure: as §1, §2
(§4) In parallel to the exemplary sample compression screen covered in Table VII, perturbations were compressed into pools and then screened. The pools were designed using drug class as a feature with two compression rules (or simply “rules”). The first rule required that drugs from the same class be separated into different cohorts (i.e., mutually exclusive groups of pools). […] A benefit of compressing perturbations is the ability to measure additive, antagonistic, and synergistic effects between drugs in the same pool. However, these effects can negatively impact deconvolution of individual drug effects. Therefore, combinations of drugs for which evidence of clinical toxicity exists can be assigned to different pools in accordance with an informed pooling operation. As new preclinical or clinical evidence of toxic combinations becomes available, the rules implemented by the screening platform 210—and more specifically, its algorithm for compressing members of a library—can be updated accordingly.
(§5) In MAX-based deconvolution, an assumption of neutrality between the compressed perturbations is made. In other words, the perturbation with the largest effect is assumed to be masking the effects, if any, of the other perturbations in the pool. For SUM- and MAX-based deconvolution, qualitative deconvolution is first performed to rank the perturbations in each pool based on size of expected effect. Qualitative deconvolution, as described above, ranks the perturbations in a pool from largest effect size to smallest effect size. The ranking is based on the overlap of each perturbation's unique subset of pools with the highest and lowest measured pools. The perturbation with the largest effect is expected to be present in the pools with the highest measured signal or corresponding metric (e.g., DRS), while the perturbation with the smallest effect is expected to be present in the pools with the lowest measured signal or corresponding metric (e.g., DRS).
(§6) For MAX-based deconvolution, the highest ranked perturbation in the rank order is first assigned an effect size based on the pool with the lowest measured signal or corresponding metric (e.g., DRS) that it is present in. Said another way, the screening platform 210 can identify the highest ranked perturbation in the rank order and then assign an effect size based on the measured signal or corresponding metric (e.g., DRS) of the “weakest” pool in which the highest ranked perturbation is included. The screening platform 210 can repeat this step for the next highest ranked perturbation, and so on until the measurements for each pool have been assigned to one of the perturbations. The effects for the remaining perturbations can be assigned a value of zero, since it is assumed that their effect is masked by the perturbation with the largest effect in each pool.

REH [4] = experiment: Cell viability (CellTiter Glo), compressed perturbation pools with informed pool design, MAX-based deconvolution, REH;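 also: higher DRS means a larger drug effect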
Procedure: as §1, §2, §4, §5, §6

[5] = MOLT-4, None (measured individually)
[6] = MOLT-4, Samples, 7 Pick 3 randomized (alphabetical) sample pools
[7] = REH, None (measured individually)
[8] = REH, Samples, 7 Pick 3 randomized (alphabetical) sample pools
[9] = MOLT-4, None (measured individually), informed pool design table
[10] = MOLT-4, Samples, 7 Pick 3 informed perturbation pools
[11] = REH, None (measured individually), informed pool design table
[12] = REH, Samples, 7 Pick 3 informed perturbation pools

Compound | DRS (MOLT-4 [1]; [5]) | DRS from deconvolution (MOLT-4 [1]; [6]) | DRS (REH [2]; [7]) | DRS from deconvolution (REH [2]; [8]) | DRS (MOLT-4 [3]; [9]) | DRS from MAX-based deconvolution (MOLT-4 [3]; [10]) | DRS (REH [4]; [11]) | DRS from MAX-based deconvolution (REH [4]; [12]) | DRS (MOLT-4 [1]) | DRS from deconvolution (MOLT-4 [1]) | DRS (REH [2]) | DRS from deconvolution (REH [2]) | DRS (MOLT-4 [3]) | DRS from MAX-based deconvolution (MOLT-4 [3]) | DRS (REH [4]) | DRS from MAX-based deconvolution (REH [4])
C[C@]12CC[C@H](O)CC1=CC[C@@H]1[C@@H]2CC[C@]2(C)C(c3cccnc3)=CC[C@@H]12 [Abiraterone] | 0.27 | 0.30 | 0.27 | 0.29 | 0.00 | 0.00 | 0.20 | 0.00 | – | – | – | – | – | – | – | –
CC#CC(=O)N1CCC[C@H]1c1nc(-c2ccc(C(=O)Nc3ccccn3)cc2)c2c(N)nccn12 [Acalabrutinib] | 0.00 | 0.00 | 0.00 | 0.00 | 0.00 | 0.00 | 0.00 | 0.00 | – | – | – | – | – | – | – | –
CCc1cc2c(cc1N1CCC(N3CCOCC3)CC1)C(C)(C)c1[nH]c3cc(C#N)ccc3c1C2=O [Alectinib] | 0.00 | 0.00 | 0.20 | 0.00 | 0.70 | 1.19 | 0.00 | 0.00 | – | – | – | – | – | – | – | –
CC(C)(C#N)c1cc(Cn2cncn2)cc(C(C)(C)C#N)c1 [Anastrozole] | 0.01 | 0.00 | 0.01 | 0.21 | 0.56 | 0.79 | 0.06 | 0.00 | – | – | – | – | – | – | – | –
C=C(c1ccc(C(=O)O)cc1)c1cc2c(cc1C)C(C)(C)CCC2(C)C [Bexarotene] | 7.00 | 0.00 | 1.00 | 0.00 | 4.84 | 5.31 | 4.94 | 5.97 | – | – | – | – | – | – | – | –
Cn1cnc2c(F)c(Nc3ccc(Br)cc3F)c(C(=O)NOCCO)cc21 [Binimetinib] | 0.00 | 0.00 | 0.00 | 0.00 | 0.11 | 0.00 | 0.37 | 0.00 | – | – | – | – | – | – | – | –
CO[C@H]1C(=O)[C@]2(C)[C@@H](OC)C[C@H]3OC[C@@]3(OC(C)=O)[C@H]2[C@H](OC(=O)c2ccccc2)[C@]2(O)C[C@H](OC(=O)[C@H](O)[C@@H](NC(=O)OC(C)(C)C)c3ccccc3)C(C)=C1C2(C)C [Cabazitaxel] | 29.89 | 30.06 | 29.39 | 29.52 | 0.01 | 0.00 | 0.01 | 0.00 | – | – | – | – | – | – | – | –
COc1cc2nccc(Oc3ccc(NC(=O)C4(C(=O)Nc5ccc(F)cc5)CC4)cc3)c2cc1OC [Cabozantinib] | 2.70 | 9.82 | 8.20 | 9.30 | 0.33 | 0.00 | 0.53 | 0.00 | – | – | – | – | – | – | – | –
CNC(=O)c1ccc(-c2cnc3ncc(Cc4ccc5ncccc5c4)n3n2)cc1F [Capmatinib] | 0.10 | 7.24 | 0.10 | 1.13 | 0.40 | 0.00 | 0.00 | 0.00 | – | – | – | – | – | – | – | –
Cc1cc(Nc2ncc(Cl)c(Nc3ccccc3S(=O)(=O)C(C)C)n2)c(OC(C)C)cc1C1CCNCC1 [Ceritinib] | 0.00 | 0.00 | 0.60 | 0.60 | 6.77 | 6.77 | 10.87 | 12.65 | – | – | – | – | – | – | – | –
O=C(c1ccc(F)c(F)c1Nc1ccc(I)cc1F)N1CC(O)([C@@H]2CCCCN2)C1 [Cobimetinib] | 0.00 | 0.00 | 0.00 | 0.00 | 1.60 | 1.60 | 0.00 | 0.00 | – | – | – | – | – | – | – | –
C[C@H](Nc1ncnc2nc[nH]c12)c1cc2cccc(Cl)c2c(=O)n1-c1ccccc1 [Duvelisib] | 0.00 | 0.00 | 0.00 | 0.00 | 5.28 | 5.28 | 2.58 | 3.75 | – | – | – | – | – | – | – | –
CC(C)(O)CNc1nc(Nc2ccnc(C(F)(F)F)c2)nc(-c2cccc(C(F)(F)F)n2)n1 [Enasidenib] | – | – | – | – | – | – | – | – | 0.00 | 0.00 | 0.00 | 0.00 | 0.00 | 0.00 | 0.00 | 0.00
COC(=O)N[C@@H](C)CNc1nccc(-c2cn(C(C)C)nc2-c2cc(Cl)cc(NS(C)(=O)=O)c2F)n1 [Encorafenib] | 0.24 | 0.21 | 1.84 | 2.10 | 4.30 | 0.00 | 0.70 | 0.00 | – | – | – | – | – | – | – | –
CN1CCN(c2ccc(C(=O)Nc3n[nH]c4ccc(Cc5cc(F)cc(F)c5)cc34)c(NC3CCOCC3)c2)CC1 [Entrectinib] | 0.00 | 0.00 | 0.00 | 0.00 | 18.70 | 21.41 | 16.20 | 18.94 | – | – | – | – | – | – | – | –
CNC(=O)c1ccc(N2C(=S)N(c3ccc(C#N)c(C(F)(F)F)c3)C(=O)C2(C)C)cc1F [Enzalutamide] | 0.00 | 0.00 | 0.00 | 0.00 | 25.00 | 28.24 | 27.70 | 31.61 | – | – | – | – | – | – | – | –
C=C1C[C@@H]2[C@H](CC[C@]3(C)C(=O)CC[C@@H]23)[C@@]2(C)C=CC(=O)C=C12 [Exemestane] | 0.00 | 0.00 | 0.00 | 0.00 | 1.04 | 0.00 | 1.84 | 0.00 | – | – | – | – | – | – | – | –
Cc1cnc(Nc2ccc(OCCN3CCCC3)cc2)nc1Nc1cccc(S(=O)(=O)NC(C)(C)C)c1 [Fedratinib] | 4.84 | 4.67 | 4.94 | 5.00 | 2.70 | 3.88 | 8.20 | 9.03 | – | – | – | – | – | – | – | –
